In US9717737B2, “Vacuolin-1 as an inhibitor of autophagy and endosomal trafficking and the use thereof for inhibiting tumor progression” (The University of Hong Kong, priority 2014, dated 2017):

System: human lung cancer stem cells (hLCSCs)
Assay: Cell proliferation of lung cancer stem cells
Type: cell-based
Text: Cancer stem cells (CSCs), a subpopulation of cells within tumors, actually drive tumor growth and recurrence. CSCs are resistant to many current cancer treatments, including chemo- and radiation therapy, thus they can survive these therapy to regenerate new tumors. […] Therefore, it is of great interest to assess the anti-tumor effects of vacuolin-1 on CSCs.

In the case of `Ic1cccc(/C=N/Nc2nc(N3CCOCC3)nc(N(c3ccccc3)c3ccccc3)n2)c1` [vacuolin-1], the “cell proliferation of hLCSCs” value is reported as “did not affect the cell proliferation”.
